One block for each compound: values may come before it. Activity calls are given as the source filed them. The calls are words filed in the database; no cut-off is given here.
How the values were obtained:
[1] = Solubility in water; type: physicochemical
Mus musculus [2] = assay: Antiinflammatory activity in mouse model of LPS-induced acute lung injury assessed as reduction in BALF protein at 5 mg/kg, ip administered immediately or 6 hrs after LPS stimulation; type: functional; set-up: scale not given: the % may be the effect or the level left
Mus musculus [3] = assay: Antiinflammatory activity in mouse model of LPS-induced acute lung injury assessed as reduction in total cell count in BALF at 38 mg/kg, iv; type: functional, organism-based
Mus musculus [4] = assay: Antiinflammatory activity in mouse model of LPS-induced acute lung injury assessed as reduction in total cell count in BALF at 64 mg/kg, iv; type: functional, organism-based
Mus musculus [5] = assay: Antiinflammatory activity in mouse model of LPS-induced acute lung injury assessed as reduction in BALF protein at 38 mg/kg, iv; type: functional, organism-based
Mus musculus [6] = assay: Antiinflammatory activity in mouse model of LPS-induced acute lung injury assessed as reduction in BALF protein at 64 mg/kg, iv; type: functional, organism-based
[7] = Toxicity in multidrug-resistant Pseudomonas aeruginosa infected mouse model of pneumonia assessed as improvement in animal survival at 38 mg/kg, sc administered once daily for 6 days; type: organism-based; conditions: in vivo, 144 h, time 6 day
[8] = Toxicity in multidrug-resistant Pseudomonas aeruginosa infected mouse model of pneumonia assessed as improvement in animal survival at 64 mg/kg, sc administered once daily for 6 days; type: organism-based; conditions: in vivo, 144 h, time 6 day
[9] = Terminal half-life in Sprague-Dawley rats at 1.4 mg/kg, iv; type: ADME, organism-based; conditions: rat, in vivo, read-out: beta t1/2 (converted)
[10] = Volume of distribution in Sprague-Dawley rats at 1.4 mg/kg, iv; type: ADME, organism-based; conditions: rat, in vivo
[11] = Clearance in Sprague-Dawley rats at 1.4 mg/kg, iv; type: ADME, organism-based; conditions: rat, in vivo

SMILES: Cc1ccc(-c2cc(=O)[nH]c3c(-c4ccc(Cl)cc4)c(Cc4ccccc4)nn23)c(OP(=O)([O-])[O-])c1.[Na+].[Na+]
- solubility [1]: > 50 µM

SMILES: C[C@@H]1C[C@H]2[C@@H]3CCC4=CC(=O)C=C[C@]4(C)[C@@]3(F)[C@@H](O)C[C@]2(C)[C@@]1(O)C(=O)CO [DEXAMETHASONE]
- Activity (Mus musculus [2]): 37%

- solubility [1]: < 1 µM
SMILES: Cc1ccc(-c2c[nH]c3c(-c4ccc(Cl)cc4)c(Cc4ccccc4)nn3c2=O)c(O)c1

SMILES: Cc1ccc(-c2c[nH]c3c(-c4ccc(Cl)cc4)c(Cc4ccccc4)nn3c2=O)c(OP(=O)([O-])[O-])c1.[Na+].[Na+]
- solubility [1]: > 50 µM
- Activity (Mus musculus [3]): Active
- Activity (Mus musculus [4]): Active
- Activity (Mus musculus [5]): Active
- Activity (Mus musculus [6]): Active
- Activity [7]: Non-Toxic
- Activity [8]: Non-Toxic

SMILES: Cc1ccc(-c2cc(=O)[nH]c3c(-c4ccc(Cl)cc4)c(Cc4ccccc4)nn23)c(OP(=O)(O)O)c1
- solubility [1]: > 50 µM

SMILES: O=c1c(-c2ccc(F)cc2OP(=O)([O-])[O-])c[nH]c2c(-c3ccc(Cl)cc3)c(Cc3ccccc3)nn12.[Na+].[Na+]
- solubility [1]: > 50 µM

- half-life [9]: 10.9 h
- Vd [10]: 0.383 L/kg
- clearance [11]: 0.025 L/h/kg
SMILES: NCCCC[C@H](N)C(=O)Oc1cc([N+](=O)[O-])ccc1-c1cc(=O)[nH]c2c(-c3ccc(Cl)cc3)c(Cc3ccccc3)nn12

Reference: ChEMBL document CHEMBL5052829, “Arf6 inhibitors and related methods” (2021)
